Data: ChEMBL document CHEMBL4602617, “Discovery and optimization of heteroaryl piperazines as potent and selective PI3Kδ inhibitors” (Bioorg Med Chem Lett, 2020)

Columns and labels:
[1] = target: Platelet-activating factor receptor (Homo sapiens) (UniProt P25105); assay: Inhibition of human PAF at 10 uM relative to control
[2] = target: Protein kinase C zeta type (Homo sapiens, UniProt Q05513); assay: Inhibition of recombinant full length human PKCzeta expressed in baculovirus expression system using serine/threonine-7 peptide as substrate incubated for 60 mins in presence of ATP by Z'-LYTE assay
[3] = target: Mitogen-activated protein kinase 3 (Homo sapiens, UniProt P27361); assay: Inhibition of recombinant full length human GST-tagged ERK1 expressed in Escherichia coli using fluorophore-labeled serine/threonine-3 peptide as substrate incubated for 60 mins in presence of ATP by Z'-LYTE assay
[4] = target: Maternal embryonic leucine zipper kinase (Homo sapiens, UniProt Q14680); assay: Inhibition of recombinant human GST-tagged MELK catalytic domain expressed in baculovirus expression system using serine/threonine-17 peptide as substrate incubated for 60 mins in presence of ATP by Z'-LYTE assay
[5] = target: Proto-oncogene tyrosine-protein kinase Src (Homo sapiens, UniProt P12931); assay: Inhibition of recombinant full length human His-tagged SRC expressed in baculovirus expression system using tyrosine-2 peptide as substrate incubated for 60 mins in presence of ATP by Z'-LYTE assay
Sequence of Proto-oncogene tyrosine-protein kinase Src (P12931 2-536 limits assumed): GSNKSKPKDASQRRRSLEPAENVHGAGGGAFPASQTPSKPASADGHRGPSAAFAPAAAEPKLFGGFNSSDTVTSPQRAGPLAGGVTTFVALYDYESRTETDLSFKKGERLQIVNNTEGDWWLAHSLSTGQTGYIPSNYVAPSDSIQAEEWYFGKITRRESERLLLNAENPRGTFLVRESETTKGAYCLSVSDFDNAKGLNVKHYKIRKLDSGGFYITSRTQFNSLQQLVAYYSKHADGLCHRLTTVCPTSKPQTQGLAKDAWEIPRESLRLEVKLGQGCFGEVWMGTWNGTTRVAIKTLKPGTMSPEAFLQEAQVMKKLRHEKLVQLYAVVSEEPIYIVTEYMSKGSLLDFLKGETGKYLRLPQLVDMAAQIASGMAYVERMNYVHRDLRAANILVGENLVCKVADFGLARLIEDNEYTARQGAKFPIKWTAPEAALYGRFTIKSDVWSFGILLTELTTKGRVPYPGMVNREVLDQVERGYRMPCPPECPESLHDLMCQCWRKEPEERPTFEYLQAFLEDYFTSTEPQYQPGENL

Sequence of Platelet-activating factor receptor (Homo sapiens) (P25105 whole entry): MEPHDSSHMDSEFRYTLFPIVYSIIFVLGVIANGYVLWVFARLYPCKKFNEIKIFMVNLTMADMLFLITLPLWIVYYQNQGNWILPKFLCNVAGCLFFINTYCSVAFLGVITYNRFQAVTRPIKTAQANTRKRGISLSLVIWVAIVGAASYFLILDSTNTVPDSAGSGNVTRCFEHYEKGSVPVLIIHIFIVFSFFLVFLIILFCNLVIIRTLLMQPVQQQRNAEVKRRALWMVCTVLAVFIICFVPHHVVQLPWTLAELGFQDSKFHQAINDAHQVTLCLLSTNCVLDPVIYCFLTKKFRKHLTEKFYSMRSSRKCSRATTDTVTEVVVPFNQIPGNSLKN
Sequence of Maternal embryonic leucine zipper kinase (Q14680 whole entry, the tested form may be a part): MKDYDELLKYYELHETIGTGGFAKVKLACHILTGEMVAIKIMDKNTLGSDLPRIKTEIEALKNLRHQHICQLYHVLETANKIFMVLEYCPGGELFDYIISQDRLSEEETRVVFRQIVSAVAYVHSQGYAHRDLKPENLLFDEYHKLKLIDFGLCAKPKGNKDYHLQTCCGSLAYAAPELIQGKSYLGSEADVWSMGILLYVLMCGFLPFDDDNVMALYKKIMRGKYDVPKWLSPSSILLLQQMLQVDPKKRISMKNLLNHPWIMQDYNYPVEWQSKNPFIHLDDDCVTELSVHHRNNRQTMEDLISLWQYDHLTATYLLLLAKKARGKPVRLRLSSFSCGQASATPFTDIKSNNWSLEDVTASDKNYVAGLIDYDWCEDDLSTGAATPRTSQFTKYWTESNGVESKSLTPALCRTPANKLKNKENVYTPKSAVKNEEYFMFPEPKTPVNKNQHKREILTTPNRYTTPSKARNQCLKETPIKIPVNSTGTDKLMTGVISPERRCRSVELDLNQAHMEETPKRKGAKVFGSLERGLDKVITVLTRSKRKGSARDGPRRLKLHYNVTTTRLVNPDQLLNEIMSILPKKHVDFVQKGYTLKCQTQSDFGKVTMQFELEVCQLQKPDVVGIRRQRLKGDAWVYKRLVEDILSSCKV
Sequence of Protein kinase C zeta type (Q05513 whole entry): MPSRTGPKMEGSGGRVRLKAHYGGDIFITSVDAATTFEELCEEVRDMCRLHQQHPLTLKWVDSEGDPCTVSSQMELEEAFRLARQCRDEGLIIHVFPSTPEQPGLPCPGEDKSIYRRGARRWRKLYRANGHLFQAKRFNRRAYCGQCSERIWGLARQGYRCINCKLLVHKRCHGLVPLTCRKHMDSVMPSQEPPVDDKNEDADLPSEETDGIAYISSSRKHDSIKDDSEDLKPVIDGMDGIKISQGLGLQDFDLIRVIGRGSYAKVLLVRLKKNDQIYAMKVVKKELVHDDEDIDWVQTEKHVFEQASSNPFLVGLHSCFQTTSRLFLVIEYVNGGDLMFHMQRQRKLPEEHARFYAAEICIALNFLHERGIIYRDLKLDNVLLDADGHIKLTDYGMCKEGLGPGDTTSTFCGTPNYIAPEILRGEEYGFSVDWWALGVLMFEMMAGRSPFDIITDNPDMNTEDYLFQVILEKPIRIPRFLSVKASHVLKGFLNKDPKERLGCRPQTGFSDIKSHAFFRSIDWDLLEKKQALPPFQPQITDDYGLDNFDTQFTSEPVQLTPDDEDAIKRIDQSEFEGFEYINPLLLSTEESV
Sequence of Mitogen-activated protein kinase 3 (P27361 whole entry, the tested form may be a part): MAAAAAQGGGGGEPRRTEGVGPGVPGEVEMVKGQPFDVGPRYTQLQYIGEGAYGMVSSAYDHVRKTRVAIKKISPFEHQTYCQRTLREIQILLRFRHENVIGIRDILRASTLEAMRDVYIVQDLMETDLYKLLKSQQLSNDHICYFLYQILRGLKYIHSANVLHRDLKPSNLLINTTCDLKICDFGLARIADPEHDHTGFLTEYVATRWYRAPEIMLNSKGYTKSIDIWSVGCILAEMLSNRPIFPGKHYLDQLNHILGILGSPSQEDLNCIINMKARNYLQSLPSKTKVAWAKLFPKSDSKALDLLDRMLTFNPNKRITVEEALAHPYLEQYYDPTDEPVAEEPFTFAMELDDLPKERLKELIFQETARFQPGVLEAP

`C[C@@H]1C[C@H]1C(=O)N1CCN(c2cnc(C#N)c(-c3cnn(C)c3)n2)C[C@H]1C` was tested, and the inhibition [1] was -5%, the IC50 [2] was > 100 µM and the IC50 [3] was > 100 µM. The IC50 [4] was > 100 µM and the IC50 [5] was > 100 µM.
